Assays:
Experiment in all cases: relative viability (nuclei count vs DMSO), 5 days (fraction); higher = more cells survive
Entinostat + Decitabine = compound: Nc1ccccc1NC(=O)c1ccc(CNC(=O)OCc2cccnc2)cc1 [Entinostat] + Nc1ncn([C@H]2C[C@H](O)[C@@H](CO)O2)c(=O)n1 [Decitabine] (partner 2 µM)
Method in brief: (§1)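 Medians of duplicate plates are given as relative viability. That measure is the nuclei count in treated wells divided by the count in vehicle wells. Counts were taken on 4× images of lung cancer cell lines in 1536-well plates, 5 days after pin-tool dosing the day after seeding with one drug alone or a fixed anchor-drug dose plus five library-drug doses (not always all listed) in √10 steps.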

SGI-1776 + Tozasertib = compound: CN1CCC(CNc2ccc3ncc(-c4cccc(OC(F)(F)F)c4)n3n2)CC1 [SGI-1776] + Cc1cc(Nc2cc(N3CCN(C)CC3)nc(Sc3ccc(NC(=O)C4CC4)cc3)n2)n[nH]1 [Tozasertib] (partner 0.1 µM)
Method in brief: as §1

Entinostat + Alpelisib = compound: Nc1ccccc1NC(=O)c1ccc(CNC(=O)OCc2cccnc2)cc1 [Entinostat] + Cc1nc(NC(=O)N2CCC[C@H]2C(N)=O)sc1-c1ccnc(C(C)(C)C(F)(F)F)c1 [Alpelisib] (partner 2 µM)
Method in brief: as §1

Entinostat + Palbociclib = compound: Nc1ccccc1NC(=O)c1ccc(CNC(=O)OCc2cccnc2)cc1 [Entinostat] + CC(=O)c1c(C)c2cnc(Nc3ccc(N4CCNCC4)cn3)nc2n(C2CCCC2)c1=O [Palbociclib] (partner 0.5 µM)
Method in brief: as §1

Cell Line | relative viability (Entinostat + Decitabine; first compound 0.02 µM) | relative viability (Entinostat + Decitabine; first compound 0.06325 µM) | relative viability (Entinostat + Decitabine; first compound 0.2 µM) | relative viability (Entinostat + Decitabine; first compound 0.6325 µM) | relative viability (Entinostat + Decitabine; first compound 2 µM) | relative viability (SGI-1776 + Tozasertib; first compound 0.08 µM) | relative viability (SGI-1776 + Tozasertib; first compound 0.8 µM) | relative viability (SGI-1776 + Tozasertib; first compound 2.53 µM) | relative viability (SGI-1776 + Tozasertib; first compound 8 µM) | relative viability (Entinostat + Alpelisib; first compound 0.02 µM) | relative viability (Entinostat + Alpelisib; first compound 0.06325 µM) | relative viability (Entinostat + Alpelisib; first compound 0.2 µM) | relative viability (Entinostat + Alpelisib; first compound 0.6325 µM) | relative viability (Entinostat + Alpelisib; first compound 2 µM) | relative viability (Entinostat + Palbociclib; first compound 0.02 µM) | relative viability (Entinostat + Palbociclib; first compound 0.06325 µM) | relative viability (Entinostat + Palbociclib; first compound 0.2 µM) | relative viability (Entinostat + Palbociclib; first compound 0.6325 µM) | relative viability (Entinostat + Palbociclib; first compound 2 µM)
SW 1573 | 0.526 | 0.46 | 0.486 | 0.311 | 0.22 | 0.174 | 0.16 | 0.174 | 0.17 | 0.672 | 0.665 | 1.04 | 0.819 | 0.83 | 0.322 | 0.486 | 0.434 | 0.428 | 0.311
LU99A | 0.953 | 0.952 | 0.749 | 0.696 | 0.646 | 0.252 | 0.239 | 0.229 | 0.25 | 0.517 | 0.5 | 0.546 | 0.418 | 0.324 | 0.419 | 0.416 | 0.376 | 0.388 | 0.302
NCI-H1299 | – | – | – | – | – | – | – | – | – | 1.09 | 1.02 | 1.06 | 0.883 | 0.815 | – | – | – | – | –
NCI-H1355 | 0.356 | 0.335 | 0.3 | 0.315 | 0.266 | 0.591 | 0.408 | 0.305 | 0.217 | 0.83 | 0.806 | 0.641 | 0.514 | 0.426 | 0.416 | 0.417 | 0.332 | 0.328 | 0.25
HARA | 0.602 | 0.521 | 0.557 | 0.456 | 0.276 | 0.18 | 0.101 | 0.0992 | 0.0856 | 0.819 | 0.861 | 0.658 | 0.582 | 0.484 | 0.301 | 0.298 | 0.258 | 0.272 | 0.266
LXF-289 | 0.422 | 0.381 | 0.446 | 0.358 | 0.31 | 0.171 | 0.212 | 0.184 | 0.0856 | 1.01 | 1.02 | 0.931 | 0.808 | 0.588 | 0.577 | 0.606 | 0.575 | 0.509 | 0.514
201T | 0.82 | 0.692 | 0.777 | 0.401 | 0.406 | 0.982 | 0.901 | 0.549 | 0.366 | 1.01 | 1.08 | 1.02 | 0.859 | 0.525 | 0.384 | 0.376 | 0.426 | 0.378 | 0.373
HCC-827 | 0.318 | 0.338 | 0.315 | 0.223 | 0.226 | 0.448 | 0.369 | 0.422 | 0.359 | 0.836 | 0.848 | 0.607 | 0.532 | 0.359 | 0.407 | 0.436 | 0.336 | 0.311 | 0.184
NCI-H1703 | – | – | – | – | – | – | – | – | – | 0.41 | 0.413 | 0.522 | 0.504 | 0.428 | – | – | – | – | –
NCI-H1975 | 0.358 | 0.35 | 0.301 | 0.169 | 0.155 | 0.809 | 0.335 | 0.169 | 0.175 | 0.454 | 0.38 | 0.38 | 0.247 | 0.204 | 0.488 | 0.378 | 0.346 | 0.181 | 0.132
NCI-H2023 | 0.199 | 0.14 | 0.157 | 0.0887 | 0.0748 | 0.325 | 0.224 | 0.165 | 0.148 | 0.475 | 0.5 | 0.319 | 0.165 | 0.128 | 0.319 | 0.312 | 0.258 | 0.151 | 0.0658
ChaGo-K-1 | 0.572 | 0.545 | 0.543 | 0.443 | 0.45 | 0.242 | 0.22 | 0.223 | 0.177 | – | – | – | – | – | 0.976 | 0.931 | 0.989 | 0.852 | 0.75
COR-L 105 | 0.64 | 0.641 | 0.595 | 0.466 | 0.337 | 0.334 | 0.286 | 0.352 | 0.318 | 0.842 | 0.925 | 0.844 | 0.608 | 0.345 | 0.376 | 0.406 | 0.38 | 0.43 | 0.355
NCI-H2170 | 0.465 | 0.468 | 0.376 | 0.281 | 0.236 | 0.708 | 0.692 | 0.452 | 0.181 | 0.77 | 0.747 | 0.771 | 0.521 | 0.345 | 0.387 | 0.362 | 0.314 | 0.252 | 0.216
A549 | 0.27 | 0.251 | 0.205 | 0.177 | 0.0922 | – | – | – | – | 0.851 | 0.729 | 0.704 | 0.515 | 0.238 | – | – | – | – | –
NCI-H1993 | 0.537 | 0.54 | 0.559 | 0.645 | 0.466 | 0.568 | 0.607 | 0.57 | 0.571 | 0.674 | 0.704 | 0.733 | 0.695 | 0.728 | 0.653 | 0.667 | 0.725 | 0.642 | 0.273

From the supplement of paper PMC10307832
